According to patent US9884089B2, “BPI and its congeners as radiation mitigators and radiation protectors” (Dana-Farber Cancer Institute, Inc., priority 2011, dated 2018):
Marks after values point to notes of the source that are not given here.

What was measured:
[1] = tested on: BALB/c mice after 7 Gy TBI; experiment: In vivo radiation mitigation: survival after 7 Gy TBI; parameters: species or system mouse; settings: 7 Gy TBI (LD95/30), treatment initiated 24 hours after irradiation; Mantel-Cox log-rank
Protocol: (§1) Male BALB/c mice (Stock #028, Charles River, Wilmington, Mass.) were acclimated prior to irradiation at age 12 weeks. Studies were conducted in accordance with Dana-Farber Cancer Institute's ACUC-approved policies and protocols. Mice were placed into a Rad Disk™ rodent microisolation irradiation cage (Braintree Scientific, Braintree, Mass.) and administered a single 7 Gy dose by a Gammacell® 40Exactor (Best Theratronics, Ottawa, Ontario) cesium source irradiator. […]
For the human HSCT study, samples with undetectable analytes were assigned a value at half the lower limit of detection. For ANC, PLT, BPI, TLR4 and IL-6, data were analyzed after logarithmic transformation, as this yielded distributions that were more approximately normal. […] Comparisons between subjects with or without fever were evaluated using the Mann-Whitney test. When assessing correlations between different parameters, within-subject correlations were calculated using the Spearman correlation coefficient and data from multiple time-points. The calculated coefficients were averaged over the different subjects and significance tested with the signed rank test. […] Two tailed t tests (Mann-Whitney) are performed throughout except for citrulline data in which the data were analyzed by 1-sample t test as compared to theoretical mean of 100% and for hematologic analyses (Table 1) in which unpaired t tests were performed. […]

[2] = tested on: BALB/c mice after 7 Gy TBI; experiment: Peripheral blood counts after TBI (CBC, Hemavet); format: in vivo, mouse; settings: median; for WBC: treatment started 24 h after irradiation
Protocol: Male BALB/c mice (Stock #028, Charles River, Wilmington, Mass.) were acclimated prior to irradiation at age 12 weeks. Studies were conducted in accordance with Dana-Farber Cancer Institute's ACUC-approved policies and protocols. Mice were placed into a Rad Disk™ rodent microisolation irradiation cage (Braintree Scientific, Braintree, Mass.) and administered a single 7 Gy dose by a Gammacell® 40Exactor (Best Theratronics, Ottawa, Ontario) cesium source irradiator. […] Moribund mice were euthanized via CO, asphyxiation. At scheduled time points, mice were sacrificed humanely via isoflurane anesthetic overdose (IsoFlo®-Abbott Labs, Abbott Park, Ill.).
CBCs were performed on a Hemavet 950 FS hematology analyzer (Drew Scientific, Waterbury, Conn.) with EDTA-anticoagulated (Becton-Dickinson, Franklin Lakes, N.J.) cardiac blood. Plasma was obtained by mixing blood with pyrogen-free heparin (APP Pharmaceutical, Schaumburg, Ill.), in pyrogen-free Eppendorf tubes (USA Scientific) and centrifugation at 14,000 rpm for 10 minutes. Single use aliquots were stored at −80° C. In some studies, femurs and tibiae from one leg/animal were dissected, fixed for 24 hours in 10% neutral buffered formalin (Fisher Scientific, Pittsburgh, Pa.), and processed, including coronal sectioning and hematoxylin and eosin (H&E) staining (Specialized Histopathology Services-Longwood, Boston, Mass.). […] Red blood cells were lysed with hypotonic lysing buffer (Sigma).

[3] = tested on: BM of BALB/c mice after 7 Gy TBI; experiment: Femoral BM cellularity by histopathology; format: in vivo, mouse; settings: D19 after 7 Gy
Protocol: as §1
A Board-certified hematopathologist (JK) assessed femoral BM cellularity on decalcified, formalin fixed, H&E stained paraffin-fixed sections using an Olympus BX51 microscope and an Olympus DP71 camera with DP Capture software. For each animal, 2 slides with 2 fields/slide were scored for the percent of BM space occupied by hematopoietic cells. […]

For `CCN1CCN(c2cc3c(cc2F)c(=O)c(C(=O)O)cn3C2CC2)CC1` [ENR, enrofloxacin], the D30 survival [1] was “some survival benefit”, the WBC ([2]; D15 after 7 Gy TBI) was 0.24 ▴ K/μL and the Hb ([2]; D15 after 7 Gy TBI) was 8.80 ▴ ▪ g/dL. The Monocytes ([2]; D15 after 7 Gy TBI) was 0 ▴ ● K/μL, the Neutrophils ([2]; D15 after 7 Gy TBI) was 0 ▴ ● K/μL and the PLT ([2]; D15 after 7 Gy TBI) was 196 ▴ K/μL. For the same compound, the WBC ([2]; D19 after 7 Gy TBI) was 0.21 ▴ K/μL, the Hb ([2]; D19 after 7 Gy TBI) was 8.35 ▴ ▪ g/dL and the Monocytes ([2]; D19 after 7 Gy TBI) was 0 ▴ ● ▪ K/μL. For the same compound, the Neutrophils ([2]; D19 after 7 Gy TBI) was 0 ▴ ● ▪ K/μL, the PLT ([2]; D19 after 7 Gy TBI) was 250.5 ▴ K/μL and the WBC ([2]; D30 after 7 Gy TBI) was 1.84 ▴ ● K/μL. For the same compound, the Hb ([2]; D30 after 7 Gy TBI) was 13.1 ▴ g/dL, the Monocytes ([2]; D30 after 7 Gy TBI) was 0.14 ● K/μL and the Neutrophils ([2]; D30 after 7 Gy TBI) was 0.55 ● K/μL. The PLT ([2]; D30 after 7 Gy TBI) was 713.5 ▴ K/μL and the BM cellularity [3] was under 5%.
